Experimental data from US20120010272A1, “RNA Interference Mediated Inhibition of Apoptosis Signal-Regulating Kinase 1 (ASK1) Gene Expression Using Short Interfering Nucleic Acid (siNA)” (Merck Sharp & Dohme Corp., priority 2009, published 2012).
[invAb] = inverted abasic unit; d = 2'-deoxy (DNA); m = 2'-O-methyl; r = 2'-OH (RNA); f = 2'-fluoro

Experiments:
ASK1 mRNA [1] = test: ASK1 mRNA knock-down by siNA in mouse Hepa1-6 cells (RNAiMax transfection, Taqman RT-PCR); type: cell-based; conditions: 10 nM siNA, 24 hrs post-transfection, vs non-targeting control, GAPDH-normalized, mean ± S.D., two experiments
Experimental: Hepal-6 (murine; ATCC cat #CRL-1830): Cells were cultured at 37° C. in the presence of 5% CO2 and grown in Dulbecco's modified Eagle's medium (DMEM) with 4 mM L-glutamine adjusted to contain 1.5 g/L sodium bicarbonate and 4.5 g/L glucose and supplemented with 10% of fetal bovine serum, 100 μg/mL of streptomycin, and 100 U/mL penicillin.
(§1) Cells were plated in all wells of a tissue-culture treated, 96-well plate at a final count of 5000 cells/well (A549 cell line) and 3,500 cells/well (Hepal-6 cell line) in 100 μL of the appropriate culture media. The cells were cultured for 24 hours after plating at 37° C. in the presence of 5% CO2.
(§2) After 24 hours, complexes containing siNA and RNAiMax were created as follows: A solution of RNAiMax diluted 33-fold in OPTI-MEM was prepared. In parallel, solutions of the siNAs for testing were prepared to a final concentration of 120 nM in OPTI-MEM. After incubation of RNAiMax/OPTI-MEM solution at room temperature for 5 min, an equal volume of the siRNA solution and the RNAiMax solution were added together for each of the siNAs.
(§3) This solution was incubated at room temperature for 20 minutes. After incubation, 20 uL of the solution was added to each of the relevant wells. The final concentration of siNA in each well was 10 nM and the final volume of RNAiMax in each well was 0.3 ul.
(§4) The time of incubation with the RNAiMax-siNA complexes was 24 hours and there was no change in media between transfection and harvesting, unless otherwise indicated.
(§5) RNA was extracted from a 96-well plate using the TaqMan® Gene Expression Cells-to-CT™ Kit (Cat #4399002) with a modified protocol. Briefly, a 60 uL (1 plate) or 110 uL (2 plates) of the Lysis Solution with DNase I was dispensed into each well of the Lysis Buffer Plate (twin.tec full skirt plate). The lysis buffer and stop plates were stored at 4° C. until the cells were washed.
(§6) The plate was spun at 1100 rpm for 5 minutes. The culture medium was aspirated and discarded from the wells of the culture plate. The lysis was performed automatically using a BioMek FX instrument and method. After the Biomek method was completed, the lysis plate was incubated for 2 min. at room temperature. The lysis plate can be stored for 2 hours at 4° C., or at −20° C. or −80° C. for two months.
(§7) Each well of the reverse transcription plate required 10 uL of 2× reverse transcriptase Buffer, 1 uL of 20× reverse transcription enzyme and 2 uL of nuclease-free water. The reverse transcription master mix was prepared by mixing 2× reverse transcription buffer, 20× reverse transcription enzyme mix, and nuclease-free water. 13 uL of the reverse transcription master mix was dispensed into each well of the reverse transcription plate (semi-skirted). A separate reverse transcription plate was prepared for each cell plate. The plate was loaded onto a Biomek NX or Biomek FX Dual-96 and the Biomek method was run. The program is programmed to automatically added 7 uL of lysate from the cell lysis procedure described above into each well of the reverse transcription plate. The plate is sealed and spun on a centrifuge (1000 rpm for 30 seconds) to settle the contents to the bottom of the reverse transcription plate. The plate is placed in a thermocycler at 37° C. for 60 min, 95° C. for 5 min, and 4° C. until the plate is removed from the thermocycler. Upon removal, if not used immediately, the plate was frozen at −20° C.
(§8) A series of probes and primers were used to detect the various mRNA transcripts of the genes of ASK1, ASK2, and GAPDH in human cell lines and ASK1 and GAPDH in mouse cell lines. All Taqman probes and primers for the experiments were supplied as pre-validated sets by ABI (see Table 2).
(§9) The assays were performed on an ABI 7900 instrument, according to the manufacturer's instructions. A TaqMan Gene Expression Master Mix (provided in the Cells-to-CT™, Applied Biosystems, Cat #4399002) was used. […]

ASK1 mRNA [2] = test: ASK1 mRNA knock-down by siNA in human A549 cells (RNAiMax transfection, Taqman RT-PCR); type: cell-based; conditions: 10 nM siNA, 24 hrs post-transfection, vs non-targeting control, GAPDH-normalized, mean ± S.D., two experiments
Experimental: A549 (human; ATCC cat #CCL-185): Cells were cultured at 37° C. in the presence of 5% CO2 and grown in Ham's F12K medium with 2 mM L-glutamine adjusted to contain 1.5 g/L sodium bicarbonate and supplemented with fetal bovine serum at a final concentration of 10%, 100 μg/mL of streptomycin, and 100 U/mL penicillin.
as §1, §2, §3, §4, §5, §6, §7, §8, §9

Substance	% KD Mouse (ASK1 mRNA [1])	% KD Human (ASK1 mRNA [2])
25374-DC: siNA duplex, sense B GcAcuGGGAAcuAcAccuu TTB, antisense AAGGuGuAGuucccAGuGcUU (SEQ ID NO: 29/30), human ASK1 target site 978 (sense GCACUGGGAACUACACCUUTT; antisense AAGGUGUAGUUCCCAGUGCUU; chemistry not fully specified)	43 ± 12%	19 ± 4%
25375-DC: siNA duplex, sense B GGAuGAAAAuAGAAAccAA TTB, antisense UUGGuuucuAuuuucAuccUU (SEQ ID NO: 31/32), human ASK1 target site 4101 (sense GGAUGAAAAUAGAAACCAATT; antisense UUGGUUUCUAUUUUCAUCCUU; chemistry not fully specified)	6 ± 13%	76 ± 6%
25377-DC: siNA duplex, sense B GGAAGAccAAGAcAAAAuu TTB, antisense AAUuuuGucuuGGucuuccUU (SEQ ID NO: 35/36), human ASK1 target site 3538 (sense GGAAGACCAAGACAAAAUUTT; antisense AAUUUUGUCUUGGUCUUCCUU; chemistry not fully specified)	10 ± 2%	80 ± 3%
25378-DC: siNA duplex, sense B cGGAAGAccAAGAcAAAAu TTB, antisense AUUuuGucuuGGucuuccGUU (SEQ ID NO: 37/38), human ASK1 target site 3537 (sense CGGAAGACCAAGACAAAAUTT; antisense AUUUUGUCUUGGUCUUCCGUU; chemistry not fully specified)	34 ± 2%	79 ± 5%
25380-DC: siNA duplex, sense B GAuGGAAAuucuAAAAAuu TTB, antisense AAUuuuuAGAAuuuccAuCUU (SEQ ID NO: 41/42), human ASK1 target site 4508 (sense GAUGGAAAUUCUAAAAAUUTT; antisense AAUUUUUAGAAUUUCCAUCUU; chemistry not fully specified)	−7 ± 11%	91 ± 0%
25381-DC: siNA duplex, sense B GcGAGGcccuGcAGAGcuu TTB, antisense AAGcucuGcAGGGccucGcUU (SEQ ID NO: 43/44), human ASK1 target site 690 (sense GCGAGGCCCUGCAGAGCUUTT; antisense AAGCUCUGCAGGGCCUCGCUU; chemistry not fully specified)	45 ± 2%	70 ± 2%
25382-DC: siNA duplex, sense B ccAGAAcuAAGGccAcAuu TTB, antisense AAUGuGGccuuAGuucuGGUU (SEQ ID NO: 45/46), human ASK1 target site 3875 (sense CCAGAACUAAGGCCACAUUTT; antisense AAUGUGGCCUUAGUUCUGGUU; chemistry not fully specified)	−26 ± 10%	20 ± 4%
25383-DC: siNA duplex, sense B cuGcuGAucAAGAAGAcuu TTB, antisense AAGUCuucuuGAucAGcAGUU (SEQ ID NO: 47/48), human ASK1 target site 3918 (sense CUGCUGAUCAAGAAGACUUTT; antisense AAGUCUUCUUGAUCAGCAGUU; chemistry not fully specified)	1 ± 3%	68 ± 7%
25384-DC: siNA duplex, sense B GGAAcAGccuucAAAucAA TTB, antisense UUGAuuuGAAGGcuGuuccUU (SEQ ID NO: 49/50), human ASK1 target site 3958 (sense GGAACAGCCUUCAAAUCAATT; antisense UUGAUUUGAAGGCUGUUCCUU; chemistry not fully specified)	61 ± 0%	82 ± 1%
25386-DC: siNA duplex, sense B GAGcAAccAAGucAGAAuu TTB, antisense AAUucuGacuuGGuuGcucUU (SEQ ID NO: 53/54), human ASK1 target site 2461 (sense GAGCAACCAAGUCAGAAUUTT; antisense AAUUCUGACUUGGUUGCUCUU; inverted abasic end caps, TT overhang, chemistry not fully specified)	53 ± 1%	80 ± 1%
25388-DC: siNA duplex, sense B GGuAGAGAcuuuAGAAAAA TTB, antisense UUUuucuAAAGucucuAccUU (SEQ ID NO: 57/58), human ASK1 target site 1360 (sense GGUAGAGACUUUAGAAAAATT; antisense UUUUUCUAAAGUCUCUACCUU; sense: sugars from the 5' end d2 f1 d5 f4 d9, [invAb] at 5' end, 3' end, backbone not given here; antisense: sugars from the 5' end rrrffffmmmmfffffmffmm, backbone not given here)	32 ± 5%	89 ± 4%
25390-DC: siNA duplex, sense B GGcuGAAGAuuAuAcAcuA TTB, antisense UAGuGuAuAAucuucAGccUU (SEQ ID NO: 61/62), human ASK1 target site 4354 (sense GGCUGAAGAUUAUACACUATT; antisense UAGUGUAUAAUCUUCAGCCUU; chemistry not fully specified)	−18 ± 14%	93 ± 1%
25391-DC: siNA duplex, sense B cAGAGGccAAGGcAuucAu TTB, antisense AUGAAuGccuuGGccucuGUU (SEQ ID NO: 63/64), human ASK1 target site 3087 (sense CAGAGGCCAAGGCAUUCAUTT; antisense AUGAAUGCCUUGGCCUCUGUU; chemistry not fully specified)	−3 ± 4%	11 ± 38%
25392-DC: siNA duplex, sense B cAcuGAccGAAAAAucAuA TTB, antisense UAUGAuuuuucGGucAGuGUU (SEQ ID NO: 65/66), human ASK1 target site 3661 (sense CACUGACCGAAAAAUCAUATT; antisense UAUGAUUUUUCGGUCAGUGUU; chemistry not fully specified)	63 ± 1%	67 ± 6%
25393-DC: siNA duplex, sense B GGuucAAAAAGGcAuuuGA TTB, antisense UCAAAuGccuuuuuGAAccUU (SEQ ID NO: 67/68), human ASK1 target site 1614 (sense GGUUCAAAAAGGCAUUUGATT; antisense UCAAAUGCCUUUUUGAACCUU; chemistry not fully specified)	77 ± 2%	88 ± 5%
25394-DC: siNA duplex, sense B uucGGAAucAuAAcAucAA TTB, antisense UUGAuGuuAuGAuuccGAAUU (SEQ ID NO: 69/70), human ASK1 target site 3786 (sense UUCGGAAUCAUAACAUCAATT; antisense UUGAUGUUAUGAUUCCGAAUU; chemistry not fully specified)	60 ± 6%	76 ± 8%
